{"source": "patent US11452758B2", "about": "“Antimicrobial peptide derived from LL37 peptide and uses thereof” (INDUSTRY-ACADEMIC COOPERATION FOUNDATION, CHOSUN UNIVERSITY, priority 2018, dated 2022)", "assay_type_in_all_cases": "cell-based", "key": {"[1]": {"test_system": "mouse erythrocytes", "assay": "Hemolytic activity", "details": "1 hour at 37° C.", "description": "To compare the cytotoxicity among the peptides that are produced by the method of Example 1, erythrocyte hemolytic activity of the synthesized peptide was measured.\nSpecifically, erythrocytes of a mouse (Balb/c, 6 week old, female) were diluted in PBS (pH 7.0) to have concentration of 8%, and then subjected to a treatment with LL37, LL37-1, LL37-2, LL37-3 or LL37-4, to have concentration of 1.56, 3.13, 6.25, 12.5, 25.0, 50.0 or 100.0 μM/well for each followed by a reaction for 1 hour at 37° C. After that, the amount of hemoglobin contained in a supernatant collected by centrifuge at 1,000×g was determined by measuring the absorbance at a wavelength of 414 nm. As a control group to be used as a reference for cell disruption level, the supernatant collected by a treatment with 1% Triton X-100 (Sigma, USA) and a reaction for 1 hour at 37° C. was used to measure the absorbance. By setting the resulting absorbance value at 100% of the hemolytic activity, hemolysis of each peptide was calculated using the following formula. Erythrocyte disrupting ability (%)=(Absorbance A−Absorbance B)/(Absorbance C−Absorbance B)×100 (in the above formula, Absorbance A indicates the absorbance of a reaction solution treated with each peptide, in which the absorbance is measured at a wavelength of 414 nm; Absorbance B indicates the absorbance of a reaction solution treated with PBS, in which the absorbance is measured at a wavelength of 414 nm; and Absorbance C indicates the absorbance of a reaction solution treated with 1% Triton X-100, in which the absorbance is measured at a wavelength of 414 nm)."}, "[2]": {"test_system": "normal human fibroblast cell line (Hs27)", "assay": "Cytotoxicity in normal cell line (MTT)", "details": "Hs27; peptide 32 μM; 24 hours; MTT", "method_in_brief": "(§1)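 HaCaT and Hs27 cells (1×10^4/well, DMEM with 10% FBS) were seeded 24 h, then exposed 24 h to peptides at 0.5–32 μM. Viability was measured by MTT reduction (1 h), with DMSO-dissolved formazan read at 570 nm.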"}, "[3]": {"test_system": "normal human keratinocyte cell line (HaCaT)", "assay": "Cytotoxicity in normal cell line (MTT)", "details": "HaCaT; peptide 32 μM; 24 hours; MTT", "method_in_brief": "as §1"}, "[4]": {"test_system": "Acinetobacter baumannii KCTC 2508", "details": "A. baumannii KCTC 2508", "description": "To determine the antimicrobial activity of peptides prepared by the method of above Example 1 in the presence of different ions in living body, minimal inhibitory concentration (MIC), i.e., lowest concentration of a peptide not allowing bacterial cell division, was measured.\nSpecifically, among the bacterial strains that are described in the above Table 2, Acinetobacter baumannii KCTC 2508 cells were cultured to a mid-log phase in MHB (Mueller Hinton Broth) medium, and, after diluting LL37-2 or LL37-4 peptide synthesized in the above Example 1 in a solution containing different kind of ions (sodium chloride, calcium chloride, magnesium chloride, and iron chloride) at different concentration, it was added to the plate in an amount of 50 μl per plate. After that, the cultured cells were diluted to cell concentration of 2×10^5 cells/50 μl, inoculated to a microtiter plate (NUNC, USA), and then cultured again for 18 hours at 37° C. By using a microtiter plate reader (Merck Elisa reader, Germany), absorbance at wavelength of 600 nm was measured and MIC value was determined for each strain. As a control, the MIC values of LL37, LL37-2 and LL37-4 for Acinetobacter baumannii KCTC 2508, which are shown in the above Table 3, were used."}}, "note": "Like-named read-outs stand apart in the source and are kept apart here. Where a SMILES comes first, the peptide text is derived from it.", "data": [{"smiles": "CC[C@H](C)[C@H](NC(=O)[C@H](CCCNC(=N)N)NC(=O)[C@H](CCC(N)=O)NC(=O)[C@@H](NC(=O)[C@@H](NC(=O)[C@H](CCCNC(=N)N)NC(=O)[C@H](CCCCN)NC(=O)[C@H](Cc1ccccc1)NC(=O)[C@H](CCCCN)NC(=O)[C@@H](N)CCCCN)[C@@H](C)CC)C(C)C)C(=O)N[C@@H](CCCCN)C(=O)N[C@@H](CC(=O)O)C(=O)N[C@@H](Cc1ccccc1)C(=O)N[C@@H](CC(C)C)C(=O)N[C@@H](CCCNC(=N)N)C(=O)N[C@@H](CC(N)=O)C(N)=O", "note": "[LL37-2, KKFKRIVQRIKDFLRN-NH2] (H-KKFKRIVQRIKDFLRN-NH2)", "values": [{"measurement": "Erythrocyte disrupting ability", "setting": "[1]; peptide 1.56 μM", "result": 0, "unit": "%"}, {"measurement": "Erythrocyte disrupting ability", "setting": "[1]; peptide 3.13 μM", "result": 0, "unit": "%"}, {"measurement": "Erythrocyte disrupting ability", "setting": "[1]; peptide 6.25 μM", "result": 1, "unit": "%"}, {"measurement": "Erythrocyte disrupting ability", "setting": "[1]; peptide 12.5 μM", "result": 1, "unit": "%"}, {"measurement": "Erythrocyte disrupting ability", "setting": "[1]; peptide 25 μM", "result": 1, "unit": "%"}, {"measurement": "Erythrocyte disrupting ability", "setting": "[1]; peptide 50 μM", "result": 1, "unit": "%"}, {"measurement": "Cell survival ability", "setting": "[2]", "result": 97, "unit": "%"}, {"measurement": "Cell survival ability", "setting": "[3]", "result": 107, "unit": "%"}, {"measurement": "Minimal inhibitory concentration of antimicrobial peptide", "setting": "[4]; Calcium chloride 1.25 mM", "result": 4, "unit": "µM"}, {"measurement": "Minimal inhibitory concentration of antimicrobial peptide", "setting": "[4]; Calcium chloride 2.5 mM", "result": 4, "unit": "µM"}, {"measurement": "Minimal inhibitory concentration of antimicrobial peptide", "setting": "[4]; Calcium chloride 5 mM", "result": 8, "unit": "µM"}, {"measurement": "Minimal inhibitory concentration of antimicrobial peptide", "setting": "[4]; Iron chloride 2 mM", "result": 4, "unit": "µM"}, {"measurement": "Minimal inhibitory concentration of antimicrobial peptide", "setting": "[4]; Iron chloride 4 mM", "result": 4, "unit": "µM"}, {"measurement": "Minimal inhibitory concentration of antimicrobial peptide", "setting": "[4]; Iron chloride 8 mM", "result": 4, "unit": "µM"}, {"measurement": "Minimal inhibitory concentration of antimicrobial peptide", "setting": "[4]; Magnesium chloride 0.5 mM", "result": 4, "unit": "µM"}, {"measurement": "Minimal inhibitory concentration of antimicrobial peptide", "setting": "[4]; Magnesium chloride 1 mM", "result": 4, "unit": "µM"}, {"measurement": "Minimal inhibitory concentration of antimicrobial peptide", "setting": "[4]; Magnesium chloride 2 mM", "result": 4, "unit": "µM"}, {"measurement": "Minimal inhibitory concentration of antimicrobial peptide", "setting": "[4]; Sodium chloride 50 mM", "result": 8, "unit": "µM"}, {"measurement": "Minimal inhibitory concentration of antimicrobial peptide", "setting": "[4]; Sodium chloride 100 mM", "result": 16, "unit": "µM"}, {"measurement": "Minimal inhibitory concentration of antimicrobial peptide", "setting": "[4]; Sodium chloride 150 mM", "result": 32, "unit": "µM"}]}]}
